# Experimental data published in ChEMBL document CHEMBL3616463, “Differential influence of 7 cations on 16 non-competitive NMDA receptor blockers” (Bioorg Med Chem Lett, 2015).
# Target: Glutamate NMDA receptor
# Assay type: cell membranes, Rattus norvegicus, Wistar, Brain, Membrane
# Description: Displacement of [3H]MK-801 from NMDA receptor in Wistar rat brain membranes by scintillation counting analysis
row,SMILES,IC50 [µM]
1,NC(N)=NCCCCN=C(N)N [ARCAINE],6.39
2,NCCCN1c2ccccc2Sc2ccc(Cl)cc21 [NOR2-CHLORPROMAZINE],5.79
3,NCCCC12CCC(c3ccccc31)c1ccccc12,7.44
4,COC(=O)[C@@H](N)Cc1c[nH]c2ccccc12 [TRYPTOPHAN METHYL ESTER],169
5,CN[C@@]1(c2ccccc2Cl)CCCCC1=O,2.12
6,CN[C@]1(c2ccccc2Cl)CCCCC1=O [ESKETAMINE],0.64
7,C[C@@H](CN)C(c1cccc(F)c1)c1cccc(F)c1,0.11
8,NCCCCCCCCc1ccc(CCCCN)s1,0.43
9,C[C@](N)(Cc1ccccc1)c1ccccc1,0.78
10,c1ccc(C2(N3CCCCC3)CCCCC2)cc1 [PHENCYCLIDINE],0.11
11,NCCCCCCCCCCCCN,8.39
12,CN(C)CCCN1c2ccccc2Sc2ccc(Cl)cc21 [CHLORPROMAZINE],21
13,N=C(N)c1ccc(N2CCCN(c3ccc(C(=N)N)cc3)CC2)cc1,0.35
14,NCCOC(c1ccccc1)c1ccccc1,5.48
